# Experimental data as given in patent US20220283175A1, “METALLOENZYMES FOR BIOMOLECULAR RECOGNITION OF N-TERMINAL MODIFIED PEPTIDES” (Encodia, Inc., priority 2020, published 2022).
# Residues, ends and D or L forms follow the SMILES beside them. *: point of attachment. Benzoyl(4-SO2NH2) = NS(=O)(=O)c1ccc(C(=O)*)cc1
# Key:
# wild-type hCAII protein = wild-type hCAII protein (Homo sapiens, UniProt P00918); test: colorimetric IC50 assay (pNPA hydrolysis) with wild-type hCAII; assay type: biochemical; settings: for IC50: 300 nM wild-type hCAII; for Fold Enhancement: relative to NTM M64
# Method: The colorimetric assay used 300 nM of wild-type carbonic anhydrase incubated in 45 μL of 50 mM MOPS (pH 7.5), 33 mM Na2SO4, and 1 mM EDTA aliquoted into a 96-well, clear, flat-bottom plate. To each column of the plate, a 1/10 dilution series from 1 mM to 0.1 nM of each NTM was added and incubated at 25° C. for 10 minutes to reach binding equilibrium. To this, 1 mM p-nitrophenylacetate (pNPA) was added to each well and screened on a plate reader at 405 nm wavelength. The initial rate of hydrolysis was observed over the first 60 seconds. The slopes versus the concentration of NTM were put into a non-linear regression equation to determine the IC50 of the NTM to the carbonic anhydrase.
# The N-terminally modified peptides were then evaluated using colorimetric IC50 assay to determine relative binding affinity of NTM-AAEIR to wild-type hCAII protein based on NTM-AAEIR inhibition capacity. The slopes versus the concentration of NTM-AAEIR were put into a non-linear regression equation to determine the IC50 of the selected NTM-AAEIR peptides to the wild-type hCAII.
# [1] = molecular target: human carbonic anhydrase II (hCAII) (Homo sapiens, UniProt P00918); test: hCAII functional assay (hydrolysis of p-nitrophenylacetate, pNP release); assay type: biochemical; settings: 1 μM hCAII, 500 μM pNP-OAc, 10 min at 37° C.
# Method: A functional assay for hCAII enzyme was set up. Carbonic anhydrase catalyzes the hydrolysis of 4-nitrophenyl acetate (4-NPA) to nitrophenol, which can be monitored by absorbance at 400 nm. The enzymatic carbonic anhydrase assay generally includes 0.2-1.0 μM enzyme and 10-500 μM 4-NPA in 20-200 μL in assay buffer. […] Metal chelating agents (EDTA or EGTA), salt (NaCl, sulfate), detergent (Tween or Triton), and organic additives (acetonitrile, DMSO) may be employed to facilitate enzyme stability and reagent solubility. For the assay, 1 μM human carbonic anhydrase II, 50 mM MOPS (pH 7.6), 33 mM disodium sulfate, and 1 mM EDTA. To generate NTM-modified peptides, azide-derivatized peptides (via azide-PEG-amine and carbodiimide coupling to C-terminus of peptide) were conjugated to DBCO-coupled beads. […] To evaluate P1 dependence of the binding reaction, multiple P1 residues has been tested.
IC50 [1],Structure (SMILES),IC50 (wild-type hCAII protein; free NTM),Fold Enhancement (wild-type hCAII protein; free NTM),Fold Enhancement (wild-type hCAII protein; NTM-AAEIR)
–,"COc1cc(S(N)(=O)=O)ccc1C(=O)O [M73, 2-Methoxy-4-sulfamoylbenzoic acid]",65400 nM,0.0,–
–,"NS(=O)(=O)c1ccc(C(=O)O)cn1 [M65, 6-Sulfamoylpyridine-3-carboxylic acid]",211 nM,2.2,0.3
–,"NS(=O)(=O)c1ccc(C(=O)O)cc1F [M88, 3-Fluoro-4-sulfamoylbenzoic acid]",110 nM,4.3,1.6
–,"NS(=O)(=O)c1ccc(C(=O)O)c([N+](=O)[O-])c1 [M67, 2-Nitro-4-sulfamoylbenzoic acid]",124 nM,3.8,2.0
–,NS(=O)(=O)c1ccc(C(=O)O)nc1 [M66],992 nM,0.5,–
–,"NS(=O)(=O)c1ccc(C(=O)O)c(F)c1 [M75, 2-Fluoro-4-sulfamoylbenzoic acid]",224 nM,2.1,2.2
45 nM,C[C@H](NC(=O)[C@H](C)NC(=O)[C@H](Cc1ccccc1)NC(=O)c1ccc(S(N)(=O)=O)cc1)C(=O)N[C@@H](C)C(=O)N[C@@H](CCC(=O)O)C(N)=O [(SAB)FAAAE] ({Benzoyl(4-SO2NH2)}-FAAAE-NH2),–,–,–
–,"Nc1cc(S(N)(=O)=O)ccc1C(=O)O [2-NH2, 2-Amino-4-sulfamoylbenzoic acid]",1380 nM,0.3,–
–,"NS(=O)(=O)c1ccc(C(=O)O)c(Cl)c1 [M76, 2-Chloro-4-sulfamoylbenzoic acid]",180 nM,2.6,1.9
–,"Cc1cc(S(N)(=O)=O)ccc1C(=O)O [M74, 2-methyl-4-sulfamoylbenzoic acid]",2040 nM,0.2,–
183 nM,C[C@H](NC(=O)c1ccc(S(N)(=O)=O)cc1)C(=O)N[C@@H](Cc1ccccc1)C(=O)N[C@@H](C)C(=O)N[C@@H](C)C(=O)N[C@@H](CCC(=O)O)C(N)=O [(SAB)AFAAE] ({Benzoyl(4-SO2NH2)}-AFAAE-NH2),–,–,–
